The text below walks through data of article PMC6720883, “In Vitro Inhibitory Effects of APINACA on Human Major Cytochrome P450, UDP-Glucuronosyltransferase Enzymes, and Drug Transporters” (Molecules, 2019).

The conditions of data set [1]: blood samples of three driving under the influence of drugs cases; cited from earlier work.
The target in another data set is P-glycoprotein (P-gp) (Homo sapiens, UniProt P08183). Briefly: B to A transport of [3-H]digoxin in LLC-PK1-MDR1 cells. Here is the method: The cells were seeded onto filter membranes at a density of 2 × 10^5 cells/well for 5 days with TEER values over 450 Ω·cm^2. The B to A transport of 0.1 μM [3-H]digoxin in LLC-PK1-MDR1 cells was measured by adding 1.5 mL of HBSS containing APINACA (final concentrations of 0–100 μM) on the basal side and by adding 0.5 mL of HBSS without APINACA on the apical side of the insert using protocols identical to those described above.
P-glycoprotein (P-gp), sequence (P08183 whole entry): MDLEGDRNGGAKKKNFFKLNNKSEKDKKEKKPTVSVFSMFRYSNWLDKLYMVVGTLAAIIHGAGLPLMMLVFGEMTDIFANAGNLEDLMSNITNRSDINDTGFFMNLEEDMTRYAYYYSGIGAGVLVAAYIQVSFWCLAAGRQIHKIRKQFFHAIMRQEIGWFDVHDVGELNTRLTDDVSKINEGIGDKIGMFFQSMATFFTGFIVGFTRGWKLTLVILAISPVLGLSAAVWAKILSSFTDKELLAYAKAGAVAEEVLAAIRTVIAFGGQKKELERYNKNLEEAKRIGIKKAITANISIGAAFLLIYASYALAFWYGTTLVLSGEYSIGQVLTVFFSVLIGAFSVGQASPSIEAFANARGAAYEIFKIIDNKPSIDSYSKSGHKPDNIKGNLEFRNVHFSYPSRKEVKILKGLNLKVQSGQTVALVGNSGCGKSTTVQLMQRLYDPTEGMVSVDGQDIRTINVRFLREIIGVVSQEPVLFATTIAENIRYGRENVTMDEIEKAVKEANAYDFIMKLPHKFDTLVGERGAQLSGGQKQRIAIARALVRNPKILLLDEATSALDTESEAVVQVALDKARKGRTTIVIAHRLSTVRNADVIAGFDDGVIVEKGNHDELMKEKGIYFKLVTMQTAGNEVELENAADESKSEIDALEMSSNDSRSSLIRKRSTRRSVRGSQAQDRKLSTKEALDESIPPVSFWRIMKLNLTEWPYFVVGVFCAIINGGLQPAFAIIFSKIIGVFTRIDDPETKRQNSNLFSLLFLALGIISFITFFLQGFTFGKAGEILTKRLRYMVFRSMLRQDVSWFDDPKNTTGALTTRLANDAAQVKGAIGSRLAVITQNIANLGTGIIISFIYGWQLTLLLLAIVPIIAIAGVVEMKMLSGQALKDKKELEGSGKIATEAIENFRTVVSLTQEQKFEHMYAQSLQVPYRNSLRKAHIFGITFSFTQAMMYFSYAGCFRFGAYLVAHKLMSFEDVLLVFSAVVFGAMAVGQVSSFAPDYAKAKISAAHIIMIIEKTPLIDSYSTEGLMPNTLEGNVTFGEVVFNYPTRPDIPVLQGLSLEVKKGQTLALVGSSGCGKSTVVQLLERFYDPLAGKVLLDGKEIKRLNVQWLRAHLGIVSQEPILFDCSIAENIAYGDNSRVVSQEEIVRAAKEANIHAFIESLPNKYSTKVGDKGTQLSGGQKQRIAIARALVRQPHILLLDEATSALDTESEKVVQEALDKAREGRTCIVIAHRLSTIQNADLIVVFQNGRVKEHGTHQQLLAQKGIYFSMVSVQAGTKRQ
(§1) 1.1 (Systat Software, Inc.).

The target of the next data set is OATP1B3 (Homo sapiens, UniProt Q9NPD5).
OATP1B3, sequence (Q9NPD5 whole entry): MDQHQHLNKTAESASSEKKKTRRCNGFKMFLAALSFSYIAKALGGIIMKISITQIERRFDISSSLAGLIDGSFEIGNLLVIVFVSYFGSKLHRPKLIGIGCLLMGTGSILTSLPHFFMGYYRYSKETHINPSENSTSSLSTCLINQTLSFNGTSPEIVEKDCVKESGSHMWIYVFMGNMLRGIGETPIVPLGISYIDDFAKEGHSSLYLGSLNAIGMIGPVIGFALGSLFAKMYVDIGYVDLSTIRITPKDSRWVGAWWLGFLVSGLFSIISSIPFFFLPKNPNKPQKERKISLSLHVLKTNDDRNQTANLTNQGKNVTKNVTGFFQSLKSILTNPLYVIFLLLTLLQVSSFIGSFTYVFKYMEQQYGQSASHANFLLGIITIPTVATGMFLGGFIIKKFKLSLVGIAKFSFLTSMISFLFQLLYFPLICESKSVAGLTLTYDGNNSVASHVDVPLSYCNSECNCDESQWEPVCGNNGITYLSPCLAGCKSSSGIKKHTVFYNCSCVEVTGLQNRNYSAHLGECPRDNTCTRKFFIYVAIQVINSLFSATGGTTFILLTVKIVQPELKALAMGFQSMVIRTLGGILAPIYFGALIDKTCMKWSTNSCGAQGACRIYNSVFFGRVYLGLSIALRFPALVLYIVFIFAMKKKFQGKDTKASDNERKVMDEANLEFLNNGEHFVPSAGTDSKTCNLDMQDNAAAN
For the next data set, the target named is T1, OAT3 (Homo sapiens, UniProt Q8TCC7).
T1 construct: host or cells: HEK293 (transient overexpression)
T1 sequence (Q8TCC7 1-542): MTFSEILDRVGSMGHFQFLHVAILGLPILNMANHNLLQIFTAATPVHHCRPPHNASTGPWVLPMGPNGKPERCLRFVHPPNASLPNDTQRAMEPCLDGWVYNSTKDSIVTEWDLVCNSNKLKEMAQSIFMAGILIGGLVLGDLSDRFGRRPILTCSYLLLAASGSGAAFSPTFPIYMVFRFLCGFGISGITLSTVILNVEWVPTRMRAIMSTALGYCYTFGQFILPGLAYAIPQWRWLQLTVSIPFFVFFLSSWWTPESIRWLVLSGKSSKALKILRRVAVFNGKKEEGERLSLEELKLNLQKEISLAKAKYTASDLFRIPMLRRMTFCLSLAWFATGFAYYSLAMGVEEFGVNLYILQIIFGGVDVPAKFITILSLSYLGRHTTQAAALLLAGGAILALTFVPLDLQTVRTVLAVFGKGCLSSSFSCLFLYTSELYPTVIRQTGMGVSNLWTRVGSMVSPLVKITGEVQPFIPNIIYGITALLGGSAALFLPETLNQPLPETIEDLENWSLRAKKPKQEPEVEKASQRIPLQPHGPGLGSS
Nature of the data set: Uptake of [3-H]estrone-3-sulfate in HEK293-OAT3 cells. It counts as in vitro ADME. How it is done:
The concentrations and probe substrates were selected as follows: 0.1 μM [3-H]MPP^+ (for OCT1 and OCT2), 0.1 μM [3-H]PAH (for OAT1), 0.1 μM [3-H]ES (for OAT3 and OATP1B1), and 0.1 μM [3-H]EG (for OATP1B3).
as §1

Another data set addresses T2, UGT1A1 (Homo sapiens, UniProt P22309).
T2 construct: […]; tissue Corning Life Sciences
T2 sequence (P22309 26-533): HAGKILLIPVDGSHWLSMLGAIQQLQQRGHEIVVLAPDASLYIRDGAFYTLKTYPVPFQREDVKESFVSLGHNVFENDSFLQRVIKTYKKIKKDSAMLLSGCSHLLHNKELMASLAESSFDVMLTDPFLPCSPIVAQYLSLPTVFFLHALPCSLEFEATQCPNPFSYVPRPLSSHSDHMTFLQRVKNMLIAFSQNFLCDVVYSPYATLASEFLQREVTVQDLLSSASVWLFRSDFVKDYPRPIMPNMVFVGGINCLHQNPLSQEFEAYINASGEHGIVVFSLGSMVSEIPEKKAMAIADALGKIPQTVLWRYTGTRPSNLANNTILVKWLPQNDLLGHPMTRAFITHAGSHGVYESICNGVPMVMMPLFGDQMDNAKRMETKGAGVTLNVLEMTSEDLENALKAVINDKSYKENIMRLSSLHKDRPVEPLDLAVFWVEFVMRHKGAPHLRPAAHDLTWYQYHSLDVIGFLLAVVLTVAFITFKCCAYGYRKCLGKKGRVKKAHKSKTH
Nature of the data set: biochemical. It counts as in vitro ADME. From the text: (§2) 12.5 (Systat Software, Inc.; San Jose, CA, USA). […] 1.1 (Systat Software, Inc.).

The next data set deals with CYP2B6 (Homo sapiens, UniProt P20813). Nature of the data set: Inhibition of CYP2B6-mediated bupropion hydroxylase in ultrapooled human liver microsomes. Format: in vitro ADME. How it is done: After 3 min of preincubation at 37 °C, the reaction mixtures were incubated with the addition of NADPH in a shaking water bath for 15 min at 37 °C. The reaction was stopped by adding 100 μL of ice cold d9-1′-hydroxybufuralol (internal standard) in methanol.
CYP2B6, sequence (P20813 whole entry): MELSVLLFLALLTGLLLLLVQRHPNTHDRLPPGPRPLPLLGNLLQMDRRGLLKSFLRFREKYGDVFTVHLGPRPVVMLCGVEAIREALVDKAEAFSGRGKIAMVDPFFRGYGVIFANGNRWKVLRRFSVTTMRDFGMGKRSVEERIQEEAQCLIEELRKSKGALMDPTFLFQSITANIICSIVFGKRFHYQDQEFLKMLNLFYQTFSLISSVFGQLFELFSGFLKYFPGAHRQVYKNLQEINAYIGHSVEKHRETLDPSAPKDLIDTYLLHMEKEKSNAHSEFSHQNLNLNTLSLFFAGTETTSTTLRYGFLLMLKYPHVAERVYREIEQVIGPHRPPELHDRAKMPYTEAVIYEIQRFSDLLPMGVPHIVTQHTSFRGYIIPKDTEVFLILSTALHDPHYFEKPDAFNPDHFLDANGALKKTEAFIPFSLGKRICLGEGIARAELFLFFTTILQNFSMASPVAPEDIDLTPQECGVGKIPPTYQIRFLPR
Next, the reaction mixtures were incubated with a seven-CYP probe substrate cocktail or bupropion for 15 min at 37 °C.
The LC-MS/MS system was comprised of an Agilent 6495 triple quadrupole mass spectrometer coupled with an Agilent 1290 Infinity system (Agilent Technologies, CA, USA). The column and autosampler temperatures were 40 °C and 4 °C, respectively.
(§3) The data were processed using Mass Hunter software (Agilent Technologies).
as §2

Another data set deals with UGT2B7 (Homo sapiens, UniProt P16662). Nature of the data set: Inhibition of UGT2B7-catalyzed naloxone 3-β-D-glucuronidation in human liver microsomes. It counts as in vitro ADME.
UGT2B7, sequence (P16662 24-529): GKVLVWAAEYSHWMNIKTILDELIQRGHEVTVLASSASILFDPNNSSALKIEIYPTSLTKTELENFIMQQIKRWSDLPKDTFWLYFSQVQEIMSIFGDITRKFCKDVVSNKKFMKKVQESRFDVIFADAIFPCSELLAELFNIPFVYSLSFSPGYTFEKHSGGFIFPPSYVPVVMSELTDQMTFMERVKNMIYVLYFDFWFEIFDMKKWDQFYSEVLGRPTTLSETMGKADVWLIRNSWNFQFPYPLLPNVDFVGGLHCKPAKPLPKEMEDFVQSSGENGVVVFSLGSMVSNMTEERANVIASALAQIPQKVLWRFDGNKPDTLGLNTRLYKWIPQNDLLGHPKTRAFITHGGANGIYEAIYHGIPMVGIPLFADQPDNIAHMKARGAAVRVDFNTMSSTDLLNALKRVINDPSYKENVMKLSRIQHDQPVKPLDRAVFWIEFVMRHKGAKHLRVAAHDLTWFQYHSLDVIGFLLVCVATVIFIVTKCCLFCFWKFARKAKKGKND
For the next data set, the target named is CYP3A4 (Homo sapiens, UniProt P08684). Nature of the data set: Inhibition of CYP3A4-mediated midazolam 1′-hydroxylase in ultrapooled human liver microsomes. The note with it: for IC50: CYP3A4 midazolam 1′-hydroxylase. Format: in vitro ADME. Here is the method:
The inhibitory potentials (IC50 values) of APINACA and typical CYP inhibitors on CYP 1A2, 2A6, 2C8, 2C9, 2C19, 2D6, and 3A4 activities in pooled human liver microsomes were evaluated following our previous method using a cocktail of CYP substrates, followed by LC–MS/MS [43]. […] After 3 min of preincubation at 37 °C, the reaction mixtures were incubated for 15 min at 37 °C with the addition of NADPH in a shaking water bath. The reaction was stopped by adding 100 μL of ice cold methanol containing internal standards (d9-1′-hydroxybufuralol for 1′-hydroxybufuralol, 4′-hydroxydiclofenac, 7-hydroxycoumarin, 1′-hydroxymidazolam, and 4′-hydroxymephenytoin; ^13C2, ^15N-acetaminophen for acetaminophen and N-desethylamodiaquine). The incubation mixtures were centrifuged at 13,000× g for 8 min at 4 °C, and 50 μL of each supernatant was diluted with 50 μL of water. Aliquots (5 μL) of the diluted supernatants were analyzed by LC–MS/MS. All assays were performed in triplicate, and the average values were used for subsequent calculations.
To measure the time-dependent inhibition, human liver microsomes were preincubated with the various concentrations of APINACA (final concentrations of 0.1−100 μM) and NADPH for 30 min at 37 °C. Next, the reaction mixtures were incubated with a seven-CYP probe substrate cocktail or bupropion for 15 min at 37 °C. The control reaction was performed by adding methanol instead of the test compounds.
The column and autosampler temperatures were 40 °C and 4 °C, respectively.
as §3, §1

Like-named read-outs stand apart in the source and are kept apart here.

CYP3A4, sequence (P08684 2-503): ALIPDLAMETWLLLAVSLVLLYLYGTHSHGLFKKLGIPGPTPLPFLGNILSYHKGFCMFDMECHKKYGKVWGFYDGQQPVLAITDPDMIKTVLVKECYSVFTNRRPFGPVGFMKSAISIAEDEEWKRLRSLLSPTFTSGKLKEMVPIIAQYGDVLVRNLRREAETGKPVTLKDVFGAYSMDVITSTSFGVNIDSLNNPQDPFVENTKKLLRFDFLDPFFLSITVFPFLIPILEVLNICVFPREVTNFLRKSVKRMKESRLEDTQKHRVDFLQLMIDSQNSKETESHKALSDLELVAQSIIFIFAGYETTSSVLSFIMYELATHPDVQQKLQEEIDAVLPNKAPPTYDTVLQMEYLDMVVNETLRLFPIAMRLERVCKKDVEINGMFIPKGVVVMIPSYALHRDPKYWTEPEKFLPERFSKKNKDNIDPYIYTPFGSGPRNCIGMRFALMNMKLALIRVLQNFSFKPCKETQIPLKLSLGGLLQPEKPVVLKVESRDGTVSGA
Method for UGT2B7: The inhibitory effect of APINACA and typical UGT inhibitors on UGT1A1, UGT1A3, UGT1A4, UGT1A6, UGT1A9, and UGT2B7 were evaluated following our previous method by LC–MS/MS after incubation of ultrapooled human liver microsomes with a cocktail of UGT substrates [44]. […] The reactions were initiated by adding UDPGA, and the incubation continued for 60 min at 37 °C in a shaking water bath. The reactions were terminated by adding 50 μL of ice-cold acetonitrile containing internal standards (propofol glucuronide for chenodeoxycholic acid 24-acyl-β-glucuronide and mycophenolic acid glucuronide; and meloxicam for SN-38 glucuronide, trifluoperazine glucuronide, N-acetylserotonin β-D-glucuronide, and naloxone 3-β-D-glucuronide). The incubation mixtures were centrifuged at 13,000× g for 8 min at 4 °C. Next, 50 μL of each supernatant of A and B set was mixed, and aliquots (5 μL) were analyzed by LC–MS/MS. All assays were performed in triplicate, and the average values were used in calculations.
To measure the time-dependent inhibition, human liver microsomes were preincubated with the various concentrations of APINACA (final concentrations of 0.1–100 μM) and UDPGA for 30 min at 37 °C. Next, the reaction mixtures were incubated with UGT probe substrate cocktail sets for 60 min at 37 °C. The control reaction was performed by adding methanol instead of the test compounds.

As for `CCCCCn1nc(C(=O)NC23CC4CC(CC(C4)C2)C3)c2ccccc21` [APINACA, N-(1-adamantyl)-1-pentyl-1H-indazole-3-carboxamide], the blood concentrations in data set [1] was 0.66 to 67.1 nM. For the same compound, the IC50 was greater than 100 µM on P-glycoprotein (P-gp); greater than 250 µM against OATP1B3; greater than 250 µM on OAT3; greater than 100 µM against UGT1A1; greater than 100 µM at UGT1A1 (read-out: IC50 UGT1A1 SN-38 glucuronidation, with 30-min preincubation, pooled human liver microsomes, 30-min preincubation with UDPGA (○)); greater than 100 µM on CYP2B6. The IC50 at CYP2B6 (read-out: IC50 (μM) With Preincubation, CYP2B6 bupropion hydroxylase, ultrapooled human liver microsomes, 30-min preincubation with NADPH) was greater than 100 µM; against UGT2B7, greater than 100 µM; at UGT2B7 (read-out: IC50 UGT2B7 naloxone 3-β-D-glucuronidation, with 30-min preincubation, pooled human liver microsomes, 30-min preincubation with UDPGA (○)), greater than 100 µM; against CYP3A4 (IC50 (μM) No Preincubation, 2.5 μM midazolam, no preincubation) it was 16.9 µM; on CYP3A4 (IC50 (μM) With Preincubation, 30-min preincubation with NADPH) it was 4.2 µM. Moreover, the “fold lower IC50 of CYP3A4 midazolam 1′-hydroxylase after 30-min preincubation than with no preincubation” value at CYP3A4 (NADPH) is given as “ca. 4 fold”.
